US4798823A, “New cyclosporin analogs with modified "C-9 amino acids"” (Merck & Co., Inc., priority 1987, dated 1989)

Target: cyclophilin (Bos taurus, UniProt P62935)
Experiment: Cyclophilin binding assay
Settings: relative to cyclosporin A (CsA); average of multiple assays
Excerpt: ^a This assay is described in detail by R. Handschumacher et. al.,

Chain of cyclophilin (P62935 whole entry): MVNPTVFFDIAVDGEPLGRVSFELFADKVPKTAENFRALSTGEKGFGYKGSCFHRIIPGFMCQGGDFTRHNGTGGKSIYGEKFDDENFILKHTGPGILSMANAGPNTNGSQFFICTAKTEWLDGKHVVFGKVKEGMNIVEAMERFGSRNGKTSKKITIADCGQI

CYCLOPHILIN BINDING (% OF CsA Activity): 179 % OF CsA Activity
Substance: cyclo[[](((2S,3R,[4R]4S)-N,4-dimethyl-4-(methylthiomethyl)-threonyl)-L-2-aminobutyrylsarcosyl-N-methyl-L-leucyl-L-valyl-N-methyl-L-leucyl-L-alanyl-D- alanyl-N-methyl-L-leucyl-N-methyl-L-leucyl-N-methyl-L-valyl-[]]) [(a)]
